Test results taken from article PMC10098121, “Amphipathic barbiturates as marine product mimics with cytolytic and immunogenic effects on head and neck squamous cell carcinoma cell lines” (Frontiers in Pharmacology, 2023).

Columns and labels:
HSC-3 cells = test: Flow cytometric detection of apoptosis (Annexin V/PI); assay type: cell-based, human; conditions: HSC-3, 24 h; cisplatin 50 µM, MPMs 5-20 µM
Experimental: HSC-3 and UT-SCC-24A cells were seeded, 300,000 cells/well, in 6-well plates and left to adhere overnight. The media was then removed and replaced by 2 ml complete DMEM/F-12 containing 5, 7.5, 10 or 20 µM of MPM-2:0, MPM-6:0, MPM-3:2 or MPM-4:2, or 50 µM cisplatin. Some cells were left untreated. The cells were then incubated for 24 h. Next, the cell supernatants were collected before the cells were trypsinized and spun down with the supernatants. For the staining, an apoptosis detection kit was used (#88-8005-74, Thermo Fisher Scientific). The cells were washed once in PBS and once in 1x binding buffer before being incubated with FITC labeled Annexin V diluted 1:25 in 1 × binding buffer for 15 min. Next the cells were washed in 1 × binding buffer before being incubated with PI diluted 1:100 in 1 × binding buffer for at least 5 min before analysis was performed on the LSR Fortessa (BD Biosciences, CA, United States). Analyses were performed in FlowJo™ v.10 (https://www.flowjo.com/).

UT-SCC-24A cells = test: MTS viability assay with bafilomycin A1 and z-VAD-FMK; assay type: cell-based, human; conditions: 24 h, cisplatin 50 µM, MPM-2:0/MPM-6:0 10 µM, MPM-3:2/MPM-4:2 20 µM
Experimental: HSC-3 and UT-SCC-24A cells were seeded, 10,000 cells/well, in flat bottom 96-well plates and left to adhere overnight. The supernatants were then removed and replaced by 50 µl of complete DMEM/F-12 ± 100 nM BafA1 (#196000, Sigma-Aldrich, St. Louis, MO, United States) or 50 µM z-VAD-FMK (#219007, Sigma-Aldrich). The plate was then incubated for 1 hour before another 50 µl of complete DMEM/F-12 ± 100 nM BafA1 or 50 µM z-VAD-FMK as well as the MPMs or cisplatin was added. The final concentration of cisplatin was 50 µM and for the MPMs it was 5 or 10 µM for MPM-2:0 and MPM-6:0, and 10 or 20 µM for MPM-3:2 and MPM-4:2, for HSC-3 and UT-SCC-24A cells, respectively. 100 μl of media ± 1% Triton X-100 served as […]. The cells were incubated for 24 h before 20 µl of MTS reagent (CellTiter 96® Aqueous One Solution, Promega, Madison, WI, United States) was added to each well. The plate was then incubated for one more hour before absorbance was measured at 490 nm on a VersaMaxTM Microplate reader (Molecular Devices, San Jose, CA, United States). Viability was calculated using the following formula: %=Abs treated sample−Abs positive control/Abs negative control−Abs positive control x 100
At least three independent experiments were performed, with triplicate wells in each experiment.

N.N.[Cl][Pt][Cl] [Cisplatin, cisplatin, reference compound]
apoptotic (Annexin V+/PI−) population (in words) (HSC-3 cells): small, but clearly apoptotic (Annexin V+/PI−) population | viability in the presence of BafA1 (100 nM) or z-VAD-FMK (50 µM) (in words) (UT-SCC-24A cells): z-VAD-FMK seemed to have some protective effects against cisplatin for both cell lines, while BafA1 had the opposite effect
